29 molecules from patent US7435837B2, “Dihydrobenzofuranyl alkanamine derivatives and methods for using same” (Wyeth, priority 2003, dated 2008) can be followed below.

The target of one assay is T1, human 5-hydroxytryptamine-2C (h5-HT2C) receptor (Homo sapiens, UniProt P28335).
T1 construct: expressed in transfected cells; host or cells: CHO (Chinese Hamster Ovary) cells; membranes
T1 sequence (P28335 33-458): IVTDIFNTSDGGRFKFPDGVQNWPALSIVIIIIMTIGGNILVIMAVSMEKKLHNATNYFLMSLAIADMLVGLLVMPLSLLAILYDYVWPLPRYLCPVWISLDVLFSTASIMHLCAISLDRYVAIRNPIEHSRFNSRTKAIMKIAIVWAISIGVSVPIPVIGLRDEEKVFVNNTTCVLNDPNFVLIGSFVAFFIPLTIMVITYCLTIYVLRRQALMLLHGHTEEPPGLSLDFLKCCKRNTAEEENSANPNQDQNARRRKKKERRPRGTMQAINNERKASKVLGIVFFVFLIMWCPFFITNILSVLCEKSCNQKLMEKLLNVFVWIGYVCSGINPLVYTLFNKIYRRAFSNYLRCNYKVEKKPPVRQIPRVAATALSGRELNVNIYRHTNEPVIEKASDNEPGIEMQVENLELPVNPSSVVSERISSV
Briefly: [125I]DOI binding to membranes of CHO cells expressing the human 5-HT2C receptor. To be noted: [125I]DOI radioligand, CHO cell membranes, room temperature 60 min; read-out: 5-HT2C Affinity Ki.
As usually defined, the Ki is the dissociation constant of the complex between target and ligand, obtained from inhibition or displacement. `NCC1Cc2cc(Cl)cc(-c3ccsc3)c2O1` (single isomer, unassigned; (+)) [Example 92, (+)-(5-chloro-7-thien-3-yl-2,3-dihydro-1-benzofuran-2-yl)methylamine]: the inhibition constant Ki worked out at 62 nM.

Regarding `COc1cc2c(c(C(C)(C)C)c1)OC(CN)C2` (single isomer, unassigned; (+)) [Example 116, (+)-1-(7-tert-butyl-5-methoxy-2,3-dihydro-1-benzofuran-2-yl)methanamine], the inhibition constant (Ki) stood at 527 nM.

For the molecule `NCC1Cc2c(cccc2-c2ccccc2C(F)(F)F)O1` (single isomer, unassigned; (+)) [Example 124, (+)-1-{4-[2-(trifluoromethyl)phenyl]-2,3-dihydro-1-benzofuran-2-yl}methanamine], the Ki came out at 53 nM.

`NCC1Cc2cccc(-c3cccc(C(F)(F)F)c3)c2O1` (single isomer, unassigned; (+)) [Example 136, (+)-1-{7-[3-(trifluoromethyl)phenyl]-2,3-dihydro-1-benzofuran-2-yl}methanamine]: the Ki stood at 124 nM.

`COc1ccc(-c2cccc3c2OC(CN)C3)c(OC)c1` (single isomer, unassigned; (+)) [Example 145, (+)-1-[7-(2,4-dimethoxyphenyl)-2,3-dihydro-1-benzofuran-2-yl]methanamine]: the inhibition constant Ki stood at 91 nM.

Turning to `COc1cccc(-c2cccc3c2OC(CN)C3)c1OC` (single isomer, unassigned; (+)) [Example 157], the Ki was 58 nM.

`Cc1cc2c(c(-c3c(Cl)cccc3Cl)c1)OC(CN)C2` (single isomer, unassigned; (+)) [Example 304, (+)-{[7-(2,6-dichlorophenyl)-5-methyl-2,3-dihydro-1-benzofuran-2-yl]methyl}amine]: the Ki was 1.7 nM.

Take `Cc1ccccc1-c1c(F)ccc2c1OC(CN)C2` (single isomer, unassigned; (+)) [Example 396, (+)-{[6-fluoro-7-(2-methylphenyl)-2,3-dihydro-1-benzofuran-2-yl]methyl}amine]: the Ki amounted to 0.3 nM.

Turning to `NCC1Cc2c(cccc2-c2ccccc2)O1` (single isomer, unassigned; (-)) [Example 3, (−)-1-(4-phenyl-2,3-dihydro-1-benzofuran-2-yl)methanamine], the Ki stood at 204 nM.

On to `Cc1ccccc1-c1cccc2c1CC(CN)O2` (single isomer, unassigned; (-)) [Example 6, (−)-1-[4-(2-methylphenyl)-2,3-dihydro-1-benzofuran-2-yl]methanamine], for which the Ki was found to be 84 nM.

For `NCC1Cc2cccc(-c3ccsc3)c2O1` (single isomer, unassigned; (-)) [Example 46, (−)-1-(7-thien-3-yl-2,3-dihydro-1-benzofuran-2-yl)methanamine], the Ki amounted to 54 nM.

For `NCC1Cc2cccc(-c3ccccc3F)c2O1` (single isomer, unassigned; (-)) [Example 52, (−)-1-[7-(2-fluorophenyl)-2,3-dihydro-1-benzofuran-2-yl]methanamine], the Ki turned out to be 13 nM.

Consider `CC(C)c1ccccc1-c1cccc2c1OC(CN)C2` (single isomer, unassigned; (-)) [Example 63, (−)-[7-(2-isopropylphenyl)-2,3-dihydro-1-benzofuran-2-yl]methylamine], for which the Ki was 52 nM.

Turning to `NCC1Cc2cccc(-c3ccc(F)cc3)c2O1` (single isomer, unassigned; (-)) [Example 75, (−)-1-[7-(4-fluorophenyl)-2,3-dihydro-1-benzofuran-2-yl]methanamine], the Ki was determined as 103 nM.

Consider `CNCC1Cc2cc(Cl)cc(-c3ccsc3)c2O1` (single isomer, unassigned; (-)) [Example 94, (−)-N-[(5-chloro-7-thien-3-yl-2,3-dihydro-1-benzofuran-2-yl)methyl]-N-methylamine], for which the Ki amounted to 176 nM.

As for `COc1cc2c(c(C(C)(C)C)c1)OC(CN)C2` (single isomer, unassigned; (-)) [Example 115, (−)-1-(7-tert-butyl-5-methoxy-2,3-dihydro-1-benzofuran-2-yl)methanamine], the Ki was determined as 79 nM.

Regarding `NCC1Cc2c(cccc2-c2ccccc2C(F)(F)F)O1` (single isomer, unassigned; (-)) [Example 123, (−)-1-{4-[2-(trifluoromethyl)phenyl]-2,3-dihydro-1-benzofuran-2-yl}methanamine], the inhibitory constant (Ki) came to 207 nM.

Regarding `Cc1cccc(C)c1-c1cccc2c1CC(CN)O2` (single isomer, unassigned; (-)) [Example 127, (−)-1-[4-(2,6-dimethylphenyl)-2,3-dihydro-1-benzofuran-2-yl]methanamine], the Ki was determined as 20 nM.

On to `COc1cccc(-c2cccc3c2OC(CN)C3)c1` (single isomer, unassigned; (-)) [Example 134, (−)-1-[7-(3-methoxyphenyl)-2,3-dihydro-1-benzofuran-2-yl]methanamine], for which the Ki is 483 nM.

As for `NCC1Cc2cccc(-c3cccc(C(F)(F)F)c3)c2O1` (single isomer, unassigned; (-)) [Example 135, (−)-1-{7-[3-(trifluoromethyl)phenyl]-2,3-dihydro-1-benzofuran-2-yl}methanamine], the Ki amounted to 131 nM.

As to `NCC1Cc2cccc(-c3cccnc3)c2O1` (single isomer, unassigned; (-)) [Example 172, (−)-{[7-pyridin-3-yl-2,3-dihydro-1-benzofuran-2-yl]methyl}amine], the Ki worked out at 185 nM.

With `Cc1cc2c(c(-c3c(Cl)cccc3Cl)c1)OC(CN)C2` (single isomer, unassigned; (-)) [Example 303, (−)-{[7-(2,6-dichlorophenyl)-5-methyl-2,3-dihydro-1-benzofuran-2-yl]methyl}amine], the Ki is 0.2 nM.

Regarding `Cc1ccccc1-c1c(F)ccc2c1OC(CN)C2` (single isomer, unassigned; (-)) [Example 397, (−)-{[6-fluoro-7-(2-methylphenyl)-2,3-dihydro-1-benzofuran-2-yl]methyl}amine], the Ki is 1.6 nM.

`CCNC[C@H]1Cc2cc(F)cc(-c3c(Cl)cccc3Cl)c2O1` [Example 546, (R)-[7-(2,6-dichloro-phenyl)-5-fluoro-2,3-dihydro-benzofuran-2-ylmethyl]ethylamine]: the Ki is 2.3 nM.

Consider `CN(C)C[C@H]1Cc2cc(F)cc(-c3c(Cl)cccc3Cl)c2O1` [Example 547, (R)-[7-(2,6-dichloro-phenyl)-5-Fluoro-2,3-dihydro-benzofuran-2-ylmethyl]dimethylamine], for which the Ki was found to be 1.8 nM.

Consider `Cc1ccc(Cl)cc1-c1cc(F)cc2c1O[C@@H](CN)C2` [Example 548, {[(2R)-7-(5-chloro-2-methylphenyl)-5-fluoro-2,3-dihydro-1-benzofuran-2-yl]methyl}amine], for which the Ki came to 2.3 nM.

For `Cc1cc(Cl)ccc1-c1cc(F)cc2c1O[C@@H](CN)C2` [Example 549, {[(2R)-7-(4-chloro-2-methylphenyl)-5-fluoro-2,3-dihydro-1-benzofuran-2-yl]methyl}amine], the inhibitory constant (Ki) turned out to be 3.1 nM.

Staying with this assay, now noted: reference compounds; 95% confidence interval in parentheses; [125I]DOI radioligand; read-out: Ki.
For `CSc1ccc2c(c1)C(N1CCN(C)CC1)Cc1ccccc1S2` (centres unmarked) [Methiothepin, reference compound], the inhibition constant Ki was 4.6 nM.

Staying with this assay, now noted: saturation binding with increasing concentrations of [125I] DOI; read-out: dissociation constant, KD.
As usually defined, the Kd is the constant that tells how readily two partners part at equilibrium. `COc1cc(CC(C)N)c(OC)cc1I` (centres unmarked) [[^125I] DOI, reference compound]: the Kd was determined as 0.4 nM.
